4 compounds from ChEMBL document CHEMBL1150816, “Bioactive constituents of the roots of Licania intrapetiolaris” (J Nat Prod, 2001) can be followed below.

In brackets after ≈: the same amount, converted by molar mass. Activity calls are given as the source filed them. The rule behind the calls is not given here.

The EC50 is the concentration needed to bring the measured effect to its halfway point.

One test has as its system Aspergillus niger. The test can be described thus: Antifungal activity against Aspergillus niger after 24 hrs. It counts as functional.
Another test has as its system KB. The test is described as follows: Cytotoxicity against human KB cells after 72 hrs by spectrophotometric method. The test is classed as functional, cell-based.

In the case of `C[C@@H]1[C@H](O)[C@@H](C)/C=C/C=C/C=C/C=C/C=C/C=C/C=C/[C@H](O[C@@H]2O[C@H](C)[C@@H](O)[C@H](N)[C@@H]2O)C[C@@H]2O[C@](O)(C[C@@H](O)C[C@@H](O)[C@H](O)CC[C@@H](O)C[C@@H](O)CC(=O)O[C@H]1C)C[C@H](O)[C@H]2C(=O)O` [AMPHOTERICIN B], in the test with Aspergillus niger, the “inhibition zone (IZ)” value is listed as 18 mm.

Regarding `C=CC(=C)CC[C@]1(C)[C@H](C)C[C@H](O)[C@@]23C(=C[C@@H](OC(=O)c4ccc(O)cc4)C[C@@H]12)[C@@H](OC)O[C@H]3OC(C)=O` [INTRAPETACIN A], the “inhibition zone (IZ)” value in the test on Aspergillus niger was “inactive”. In the test on KB, a half-maximal effect (EC50) was put at 2 µg/mL (≈ 3.8 µM).

Turning to `CC(=O)OC(C)(C)/C=C/C(=O)[C@](C)(O)[C@H]1[C@H](O)C[C@@]2(C)[C@@H]3CC=C4[C@H](C[C@H](O)C(=O)C4(C)C)[C@]3(C)C(=O)C[C@]12C` [CUCURBITACIN B], in the test on KB, the EC50 came to 0.008 µg/mL (≈ 0.0143 µM).

On to `C=CC(=C)CC[C@]1(C)[C@H](C)C[C@H](O)[C@@]23C(=C[C@@H](OC(=O)c4ccc(O)cc4)C[C@@H]12)[C@@H](OC(C)=O)O[C@H]3OC(C)=O` [INTRAPETACIN B], for which the “inhibition zone (IZ)” value with Aspergillus niger is 21 mm. In the test with KB, this compound showed an EC50 of 0.8 µg/mL (≈ 1.44 µM).
